Results on 11 compounds are retold here after patent US9540343B2 (Gilead Sciences, Inc., priority 2011, dated 2017).

In one series the test system is HIV-IIIb. Description: Test A: Antiviral assay in MT4 cells. The class given is cell-based, HIV-1. To be noted: MT-4 cells infected with HIV-IIIb, 5 days, CellTiter-Glo; for % inhibition at 2 μM: percent inhibition of virus-induced cell killing, from dose response curve at 2 uM drug; for inhibition at 2 µM: Human immunodeficiency virus 1, IIIB, MT4, 120 h, read-out: % inhibition at 2 μM, percent inhibition of virus-induced cell killing, from dose response curve at 2 uM drug.

A further series has as its system MT-4 cells. Description: in vitro. The following applies: uninfected MT-4 cells, same protocol as Test A, 5 days, CellTiter-Glo. In outline: (§1)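 Cytoprotection read-out: CellTiter-Glo chemiluminescence after 5 days at 37 °C of HIV-IIIb-infected MT-4 cells (m.o.i. 0.003) with compound in 10-point 3-fold dilutions, quadruplicate, 10% FBS. Cytotoxicity (CC50) measured identically without virus.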
(In general: In ATP-based viability assays light output follows the ATP content of the culture.)

The next series can be described thus: in vitro. The essentials:
as §1

[1] abbreviates: human, uninfected MT-4 cells, CC50 (nM), same protocol as Test A, CellTiter-Glo.

Structures are written as SMILES.

For orientation: % inhibition means the change of the read-out against control, counted positive when it falls. A word on the CC50: it is the concentration at which the toxic effect on the cells reaches its halfway point. A high value points to better tolerance by the cells. Regarding `CCC(C(=O)N[C@@H](Cc1cc(F)cc(F)c1)c1ncccc1-c1ccc(F)c(C(N)=O)c1)n1cc(C(F)(F)F)cn1` (single isomer, unassigned) [Example 566], in the series on HIV-IIIb, the “% inhibition at 2 μM” value was 3%. For the same compound, in the series with MT-4 cells, the cytotoxic concentration (CC50) is 23.7 µM.

Take `CCC(C(=O)N[C@@H](Cc1cc(F)cc(F)c1)c1ncccc1-c1ccc(F)c(C(N)=O)c1)n1nc(C(F)(F)F)c2c1CCCC2` (single isomer, unassigned) [Example 532]: the “% inhibition at 2 μM” value in the series on HIV-IIIb was found to be 9%. The CC50 in the series on MT-4 cells came out at 12.2 µM.

As for `NC(=O)c1cc(-c2cccnc2[C@H](Cc2cc(F)cc(F)c2)NC(=O)Cn2nc(C(F)F)c3c2CC2CC32)ccc1F` (single isomer, unassigned) [Example 249], in the series with HIV-IIIb, the “% inhibition at 2 μM” value worked out at 100%. In addition, the CC50 in the series on MT-4 cells turned out to be 23.4 µM.

On to `NC(=O)c1cc(-c2cccnc2[C@H](Cc2cc(F)cc(F)c2)NC(=O)C(c2ccccc2)C2CCCC2)ccc1F` (single isomer, unassigned) [Example 552], for which, in the series with HIV-IIIb, the “% inhibition at 2 μM” value came out at 8%. In the series with MT-4 cells, the CC50 was 11 µM.

Regarding `CCC(C(=O)N[C@@H](Cc1cc(F)cc(F)c1)c1ncccc1-c1ccc(F)c(C(N)=O)c1)n1ccnc1C(C)C` (single isomer, unassigned) [Example 558B], the “% inhibition at 2 μM” value in the series with HIV-IIIb is 3%. The compound further gave a CC50 at 5 days in “in vitro” (setting [1]) above 53200 nM.

The inhibition is the change of the read-out against control, counted positive when it falls. In the case of `NC(=O)c1cc(-c2cccnc2[C@H](Cc2cc(F)cc(F)c2)NC(=O)Cn2nc(C(F)F)c3c2CC2CC32)ccc1F` (single isomer, unassigned) [Example 248], the inhibition at 2 µM in the series on HIV-IIIb was 88%. The midpoint of cytotoxicity in “in vitro” (setting [1]), the CC50 at 5 days, lay at 26500 nM.

`O=C(Cn1nc(C(F)F)c2c1C(F)(F)CCC2(F)F)N[C@@H](Cc1cc(F)cc(F)c1)c1ncccc1-c1ccc2cc[nH]c(=O)c2c1` [Example 559D, (S)-2-(3-(difluoromethyl)-4,4,7,7-tetrafluoro-4,5,6,7-tetrahydro-1H-indazol-1-yl)-N-(2-(3,5-difluorophenyl)-1-(3-(1-oxo-1,2-dihydroisoquinolin-7-yl)pyridin-2-yl)ethyl)acetamide]: in the series with HIV-IIIb, the inhibition at 2 µM is 96%. Further, in “in vitro” (setting [1]), the CC50 at 5 days was found to be 23100 nM.

For the compound `CC(=O)c1c(C)n(CC(=O)N[C@@H](Cc2cc(F)cc(F)c2)c2ncccc2-c2cccc(C(N)=O)c2)c2ccccc12` [Example 495, (S)-3-(2-(1-(2-(3-acetyl-2-methyl-1H-indol-1-yl)acetamido)-2-(3,5-difluorophenyl)ethyl)pyridin-3-yl)benzamide], in the series on HIV-IIIb, the inhibition at 2 µM worked out at 85%. This compound also returned a CC50 at 5 days in “in vitro” (human, CC50 (nM), uninfected MT-4 cells, same protocol as Test A, CellTiter-Glo) of 15500 nM.

In the case of `COC1CN(C(=O)Cc2c(C)n(CC(=O)N[C@@H](Cc3cc(F)cc(F)c3)c3ncccc3-c3ccc(F)c(C(N)=O)c3)c3ccccc23)C1` [Example 579D, (S)-5-(2-(2-(3,5-difluorophenyl)-1-(2-(3-(2-(3-methoxyazetidin-1-yl)-2-oxoethyl)-2-methyl-1H-indol-1-yl)acetamido)ethyl)pyridin-3-yl)-2-fluorobenzamide], the inhibition at 2 µM in the series on HIV-IIIb was determined as 18%. The CC50 at 5 days in “in vitro” (setting [1]) is above 53200 nM.

For `Cc1ccccc1-c1ccnc(C(Cc2ccccc2)NC(=O)Cn2nc(C(F)(F)F)c3c2CCCC3)n1` (stereo not shown) [Example 10, N-(2-phenyl-1-(4-o-tolylpyrimidin-2-yl)ethyl)-2-(3-(trifluoromethyl)-4,5,6,7-tetrahydro-1H-indazol-1-yl)acetamide], the inhibition at 2 µM in the series with HIV-IIIb is 0%. Half-maximal cytotoxicity in “in vitro” (setting [1]) (CC50 at 5 days) was put at 13000 nM.

`NC(=O)c1cc(-c2cccnc2[C@H](Cc2cc(F)cc(F)c2)NC(=O)Cn2nc(C(F)F)c3c2C(O)CCC3)ccc1F` (stereo partly drawn) [Example 384, 5-(2-((1S)-1-(2-(3-(difluoromethyl)-7-hydroxy-4,5,6,7-tetrahydro-1H-indazol-1-yl)acetamido)-2-(3,5-difluorophenyl)ethyl)pyridin-3-yl)-2-fluorobenzamide]: the inhibition at 2 µM in the series on HIV-IIIb came out at 97%. For the same compound, in the series “in vitro” (setting [1]), the CC50 at 5 days is above 53200 nM.
